Here are results for 16 compounds from ChEMBL document CHEMBL1145316, “Synthesis of novel tricyclic oxazolidinones by a tandem SN2 and SNAr reaction: SAR studies on conformationally constrained analogues of Linezolid” (2006).

What all share (type): functional
Experiment [1] concerns Staphylococcus aureus. The experiment in a line: Antibacterial activity against methicillin-resistant Staphylococcus aureus ATCC 33591.
Experiment [2] has as its system Staphylococcus aureus. The experiment in a line: Antibacterial activity against Staphylococcus aureus ATCC 49951.
In experiment [3] the test system is Staphylococcus aureus. Nature of the experiment: Antibacterial activity against Staphylococcus aureus ATCC 29213.
Experiment [4] concerns Enterococcus faecalis. Nature of the experiment: Antibacterial activity against vancomycin-sensitive Enterococcus faecalis ATCC 29212.
Experiment [5] deals with Enterococcus faecalis. The experiment in a line: Antibacterial activity against vancomycin-resistant Enterococcus faecalis NCTC 12201.
The test system of another experiment is Enterococcus faecium. The experiment in a line: Antibacterial activity against vancomycin-resistant Enterococcus faecium ATCC 12202.

The structures appear in SMILES notation. In brackets after ≈: the same amount, converted by molar mass.

As a reminder, the MIC is the smallest concentration in the dilution series that meets the test's criterion for growth inhibition. Read a high MIC as weaker potency. `CC(=O)NC[C@H]1CN(c2ccc3c(c2)OC[C@@H]2CCCN32)C(=O)O1`: the MIC was 4 µg/mL (≈ 12.1 µM) in the experiment on Staphylococcus aureus [1]; 4 µg/mL (≈ 12.1 µM) against Staphylococcus aureus [2]; 8 µg/mL (≈ 24.1 µM) against Staphylococcus aureus [3]; 16 µg/mL (≈ 48.3 µM) in the experiment with Enterococcus faecalis [4]; 16 µg/mL (≈ 48.3 µM) in the experiment on Enterococcus faecalis [5]; 16 µg/mL (≈ 48.3 µM) in the experiment with Enterococcus faecium.

`COC(=S)NC[C@H]1CN(c2cc(F)c3c(c2)N(C)C[C@@H]2CCCN32)C(=O)O1`: the MIC against Staphylococcus aureus [1] was greater than 32 µg/mL; against Staphylococcus aureus [2], greater than 32 µg/mL; against Staphylococcus aureus [3] it was greater than 32 µg/mL; against Enterococcus faecalis [4], greater than 32 µg/mL; in the experiment on Enterococcus faecalis [5], greater than 32 µg/mL; with Enterococcus faecium, 32 µg/mL (≈ 81.1 µM).

`CC(=O)NC[C@H]1CN(c2ccc3c(c2)SC[C@@H]2CCCN32)C(=O)O1`: the MIC in the experiment on Staphylococcus aureus [1], in the experiment with Staphylococcus aureus [2], in the experiment on Staphylococcus aureus [3], against Enterococcus faecalis [4], in the experiment on Enterococcus faecalis [5] and against Enterococcus faecium was 8 µg/mL (≈ 23 µM) throughout.

For the compound `CC(=O)NC[C@H]1CN(c2ccc3c(c2)N(C=O)C[C@@H]2CCCN32)C(=O)O1`, the MIC against Staphylococcus aureus [1], in the experiment with Staphylococcus aureus [2], with Staphylococcus aureus [3], against Enterococcus faecalis [4], against Enterococcus faecalis [5] and with Enterococcus faecium was greater than 256 µg/mL each time.

For the compound `CC(=O)NC[C@H]1CN(c2ccc3c(c2)S(=O)(=O)C[C@@H]2CCCN32)C(=O)O1`, the MIC against Staphylococcus aureus [1], in the experiment on Staphylococcus aureus [2], against Staphylococcus aureus [3], in the experiment with Enterococcus faecalis [4], with Enterococcus faecalis [5] and in the experiment on Enterococcus faecium was greater than 32 µg/mL each time.

On to `CC(=O)NC[C@H]1CN(c2cc(F)c3c(c2)SC[C@@H]2CCCN32)C(=O)O1`, for which the MIC was determined as 1 µg/mL (≈ 2.74 µM) against Staphylococcus aureus [1]; 1 µg/mL (≈ 2.74 µM) in the experiment with Staphylococcus aureus [2]; 2 µg/mL (≈ 5.47 µM) against Staphylococcus aureus [3]; 2 µg/mL (≈ 5.47 µM) in the experiment with Enterococcus faecalis [4]; 1 µg/mL (≈ 2.74 µM) against Enterococcus faecalis [5]; 2 µg/mL (≈ 5.47 µM) in the experiment with Enterococcus faecium.

For the compound `C/C(S)=N/C[C@H]1CN(c2cc(F)c3c(c2)SC[C@@H]2CCCN32)C(=O)O1`, the MIC in the experiment with Staphylococcus aureus [1] worked out at 0.25 µg/mL (≈ 0.655 µM); against Staphylococcus aureus [2], 0.5 µg/mL (≈ 1.31 µM); against Staphylococcus aureus [3], 0.5 µg/mL (≈ 1.31 µM); against Enterococcus faecalis [4], 0.5 µg/mL (≈ 1.31 µM); against Enterococcus faecalis [5], 0.25 µg/mL (≈ 0.655 µM); with Enterococcus faecium it was 0.25 µg/mL (≈ 0.655 µM).

In the case of `CC(=O)NC[C@H]1CN(c2ccc3c(c2)N(C(=O)OCc2ccccc2)C[C@@H]2CCCN32)C(=O)O1`, the MIC in the experiment on Staphylococcus aureus [1], in the experiment with Staphylococcus aureus [2], in the experiment with Staphylococcus aureus [3], against Enterococcus faecalis [4], against Enterococcus faecalis [5] and in the experiment on Enterococcus faecium was greater than 32 µg/mL each time.

With `CC(=O)NC[C@H]1CN(c2ccc3c(c2)N(C(=O)CCl)C[C@@H]2CCCN32)C(=O)O1`, the minimum inhibitory concentration (MIC) against Staphylococcus aureus [1], in the experiment on Staphylococcus aureus [2], against Staphylococcus aureus [3], against Enterococcus faecalis [4], in the experiment with Enterococcus faecalis [5] and against Enterococcus faecium was greater than 256 µg/mL in each case.

For `COC(=S)NC[C@H]1CN(c2ccc3c(c2)SC[C@@H]2CCCN32)C(=O)O1`, the MIC in the experiment with Staphylococcus aureus [1] came to 0.25 µg/mL (≈ 0.659 µM); in the experiment on Staphylococcus aureus [2], 1 µg/mL (≈ 2.63 µM); against Staphylococcus aureus [3], 0.5 µg/mL (≈ 1.32 µM); in the experiment on Enterococcus faecalis [4], 0.25 µg/mL (≈ 0.659 µM); against Enterococcus faecalis [5], 0.25 µg/mL (≈ 0.659 µM); in the experiment with Enterococcus faecium it was 0.5 µg/mL (≈ 1.32 µM).

For `CNC(=S)NC[C@H]1CN(c2cc(F)c3c(c2)SC[C@@H]2CCCN32)C(=O)O1`, the MIC against Staphylococcus aureus [1] was found to be 0.5 µg/mL (≈ 1.26 µM); in the experiment on Staphylococcus aureus [2] it was 0.5 µg/mL (≈ 1.26 µM); in the experiment with Staphylococcus aureus [3], 2 µg/mL (≈ 5.04 µM); against Enterococcus faecalis [4], 1 µg/mL (≈ 2.52 µM); in the experiment on Enterococcus faecalis [5], 0.5 µg/mL (≈ 1.26 µM); in the experiment on Enterococcus faecium, 1 µg/mL (≈ 2.52 µM).

Turning to `CC(=O)NC[C@H]1CN(c2cc(F)c3c(c2)N(C)C[C@@H]2CCCN32)C(=O)O1`, the MIC in the experiment with Staphylococcus aureus [1] is greater than 32 µg/mL; in the experiment with Staphylococcus aureus [2], greater than 32 µg/mL; in the experiment with Staphylococcus aureus [3], greater than 32 µg/mL; with Enterococcus faecalis [4], greater than 32 µg/mL; against Enterococcus faecalis [5], greater than 32 µg/mL; against Enterococcus faecium it was 32 µg/mL (≈ 88.3 µM).

Consider `CC(=O)NC[C@H]1CN(c2ccc3c(c2)N(C(C)=O)C[C@@H]2CCCN32)C(=O)O1`, for which the MIC against Staphylococcus aureus [1], against Staphylococcus aureus [2], against Staphylococcus aureus [3], in the experiment on Enterococcus faecalis [4], in the experiment on Enterococcus faecalis [5] and against Enterococcus faecium was greater than 256 µg/mL each time.

For the compound `COC(=S)NC[C@H]1CN(c2cc(F)c3c(c2)SC[C@@H]2CCCN32)C(=O)O1`, the MIC is 0.5 µg/mL (≈ 1.26 µM) against Staphylococcus aureus [1]; 1 µg/mL (≈ 2.52 µM) against Staphylococcus aureus [2]; 1 µg/mL (≈ 2.52 µM) against Staphylococcus aureus [3]; 1 µg/mL (≈ 2.52 µM) with Enterococcus faecalis [4]; 0.5 µg/mL (≈ 1.26 µM) against Enterococcus faecalis [5]; 0.5 µg/mL (≈ 1.26 µM) against Enterococcus faecium.

Regarding `CC(=O)NC[C@H]1CN(c2ccc(N3CCOCC3)c(F)c2)C(=O)O1` [LINEZOLID], the MIC in the experiment on Staphylococcus aureus [1] worked out at 1 µg/mL (≈ 2.96 µM); against Enterococcus faecium, 2 µg/mL (≈ 5.93 µM).

Turning to `CN[C@H](CC(C)C)C(=O)N[C@H]1C(=O)N[C@@H](CC(N)=O)C(=O)N[C@H]2C(=O)N[C@H]3C(=O)N[C@H](C(=O)N[C@H](C(=O)O)c4cc(O)cc(O)c4-c4cc3ccc4O)[C@H](O)c3ccc(c(Cl)c3)Oc3cc2cc(c3O[C@@H]2O[C@H](CO)[C@@H](O)[C@H](O)[C@H]2O[C@H]2C[C@](C)(N)[C@H](O)[C@H](C)O2)Oc2ccc(cc2Cl)[C@H]1O` [VANCOMYCIN], the MIC is 2 µg/mL (≈ 1.38 µM) with Enterococcus faecalis [4], greater than 32 µg/mL with Enterococcus faecalis [5] and greater than 32 µg/mL with Enterococcus faecium.
